Laboratory results reported in article PMC9865890, “N-Derivatives of (Z)-Methyl 3-(4-Oxo-2-thioxothiazolidin-5-ylidene)methyl)-1H-indole-2-carboxylates as Antimicrobial Agents—In Silico and In Vitro Evaluation” (Pharmaceuticals, 2023).
≈ marks a conversion by molar mass, not a printed value. Like-named read-outs stand apart in the source and are kept apart here.

How the values were obtained:
[1] = tested on: Penicillium verrucosum var. cyclopium (food isolate); experiment: Antifungal bioassay (MIC/MFC); format: cell-based
Procedure: For the antifungal bioassays, six fungi were used: Aspergillus niger (ATCC 6275), Aspergillus fumigatus (ATCC 1022), Aspergillus versicolor (ATCC 11730), Penicillium funiculosum (ATCC 36839), Trichoderma viride (IAM 5061), and Penicillium verrucosum var. cyclopium (food isolate). The organisms were obtained from the Mycological Laboratory, Department of Plant Physiology, Institute for Biological Research “Siniša Stankovic”, Belgrade, Serbia. All experiments were performed in duplicate.

[2] = tested on: Aspergillus niger (ATCC 6275); experiment: Antifungal bioassay (MIC/MFC); format: cell-based; settings: ATCC6275, A.n. (A. niger)
Procedure: (§1) For the antifungal bioassays, six fungi were used: […] The organisms were obtained from the Mycological Laboratory, Department of Plant Physiology, Institute for Biological Research “Siniša Stankovic”, Belgrade, Serbia. All experiments were performed in duplicate.

[3] = tested on: Aspergillus fumigatus (ATCC 1022); experiment: Antifungal bioassay (MIC/MFC); format: cell-based; settings: ATCC1022, A.f. (A. fumigatus)
Procedure: as §1

[4] = tested on: Aspergillus versicolor (ATCC 11730); experiment: Antifungal bioassay (MIC/MFC); format: cell-based; settings: ATCC11730, A.v. (A. versicolor)
Procedure: as §1

[5] = tested on: A. ochraceus; experiment: Antifungal bioassay (MIC/MFC); format: cell-based; settings: A.o. (A. ochraceus)
Procedure: as §1

[6] = tested on: Penicillium funiculosum (ATCC 36839); experiment: Antifungal bioassay (MIC/MFC); format: cell-based; settings: Talaromyces funiculosus, ATCC36839; P.f. (P. funiculosum)
Procedure: as §1

[7] = tested on: Trichoderma viride (IAM 5061); experiment: Antifungal bioassay (MIC/MFC); format: cell-based; settings: T.v. (T. viride)
Procedure: as §1

[8] = tested on: P. ochrochloron; experiment: Antifungal bioassay (MIC/MFC); format: cell-based; settings: Penicillium ochrochloron; for MFC: P.o. (P. ochrochloron); for MIC: P.o. (P. ochrochloron; text: P. ochramensis), read-out: MIC
Procedure: as §1

[9] = tested on: Listeria monocytogenes (NCTC 7973); experiment: Antibacterial microdilution (MIC/MBC); format: cell-based; settings: Listeria monocytogenes, NCTC7973, L.m. (L. monocytogenes); for MIC: read-out: MIC
Procedure: (§2) The synthesized compounds (Table 1) were evaluated for their antibacterial activity against a panel of eight species using a microdilution method with ampicillin and streptomycin as reference drugs. […] The order of activity can be presented as: 8 > 11 > 2 > 1 > 12 > 3 > 17 > 7 > 5 > 13 > 14 > 16 > 9 > 4 = 6 > 15 > 10. […] Cloacae. […] The most sensitive bacteria appeared to be En. cloacae, while E. coli was the most resistant one, followed by M. flavus.
(§3) The following Gram-negative bacteria: Escherichia coli (ATCC 35210), Enterobacter cloacae (clinical isolate), Salmonella typhimurium (ATCC 13311), as well as Gram-positive bacteria: Listeria monocytogenes (NCTC 7973), Bacillus cereus (clinical isolate), and Staphylococcus aureus (ATCC 6538) were used. The organisms were obtained from the Mycological Laboratory, Department of Plant Physiology, Institute for Biological Research “Siniša Stankovic”, Belgrade, Serbia. The minimum inhibitory (MIC) and minimum bactericidal (MBC) concentrations were determined by the modified microdilution method, as previously reported.

[10] = tested on: Staphylococcus aureus (ATCC 6538); experiment: Antibacterial microdilution (MIC/MBC); format: cell-based; settings: S.a. (S. aureus)
Procedure: as §2, §3

[11] = tested on: P. aeruginosa; experiment: Antibacterial microdilution (MIC/MBC); format: cell-based; settings: Pseudomonas aeruginosa, P.a. (P. aeruginosa); for MIC: read-out: MIC
Procedure: as §2, §3

[12] = tested on: Bacillus cereus (clinical isolate); experiment: Antibacterial microdilution (MIC/MBC); format: cell-based; settings: Bacillus cereus, B.c. (B. cereus); for MIC: read-out: MIC
Procedure: as §2, §3

[13] = tested on: Escherichia coli (ATCC 35210); experiment: Antibacterial microdilution (MIC/MBC); format: cell-based; settings: Escherichia coli, ATCC35210, E. coli; for MIC: read-out: MIC
Procedure: as §2, §3

[14] = tested on: Salmonella typhimurium (ATCC 13311); experiment: Antibacterial microdilution (MIC/MBC); format: cell-based; settings: Salmonella enterica, S.t. (S. typhimurium); for MIC: read-out: MIC
Procedure: as §2, §3

[15] = tested on: Enterobacter cloacae (clinical isolate); experiment: Antibacterial microdilution (MIC/MBC); format: cell-based; settings: Enterobacter cloacae, En.cl (En. cloacae); for MIC: read-out: MIC
Procedure: as §2, §3

[16] = tested on: M. flavus; experiment: Antibacterial microdilution (MIC/MBC); format: cell-based; settings: Micrococcus flavus; M.f. (M. flavus)
Procedure: as §2, §3

[17] = Aspergillus ochraceus, read-out: MIC
[18] = Trichoderma viride, IAM5061, read-out: MIC
[19] = Staphylococcus aureus, ATCC6538
[20] = Staphylococcus aureus, ATCC6538, read-out: MIC

SMILES | MFC [1] | MIC [1] | MFC [2] | MIC [2] | MFC [3] | MIC [3] | MFC [4] | MIC [4] | MFC ([5]; Aspergillus ochraceus) | MIC [5, 17] | MFC [6] | MIC [6] | MIC [7] | MFC ([7]; Trichoderma viride, IAM5061) | MIC [7, 18] | MFC [8] | MIC [8] | MBC [9] | MIC [9] | MBC [10, 19] | also measured
COC(=O)c1[nH]c2ccccc2c1/C=C1\SC(=S)N(c2ccc(O)cc2)C1=O [Compound 4, (Z)-methyl 3-((3-(4-hydroxyphenyl)-4-oxo-2-thioxothiazolidin-5-ylidene)methyl)-1H-indole-2-carboxylate] | 60 ± 6 µg/mL (≈ 146 µM) | 30 ± 10 µg/mL (≈ 73.1 µM) | 30 ± 10 µg/mL (≈ 73.1 µM) | 15 ± 3 µg/mL (≈ 36.5 µM) | 120 ± 40 µg/mL (≈ 292 µM) | 60 ± 6 µg/mL (≈ 146 µM) | 15 ± 3 µg/mL (≈ 36.5 µM) | 8 ± 0.6 µg/mL (≈ 19.5 µM) | 15 ± 3 µg/mL (≈ 36.5 µM) | 8 ± 0.6 µg/mL (≈ 19.5 µM) | 30 ± 10 µg/mL (≈ 73.1 µM) | 15 ± 3 µg/mL (≈ 36.5 µM) | 8 ± 0.6 µg/mL (≈ 19.5 µM) | 15 ± 3 µg/mL (≈ 36.5 µM) | 8 µg/mL (≈ 19.5 µM) | 30 ± 10 µg/mL (≈ 73.1 µM) | 15 ± 3 µg/mL (≈ 36.5 µM) | 60 ± 6 µg/mL (≈ 146 µM) | 45 ± 1 µg/mL (≈ 110 µM) | 60 ± 6 µg/mL (≈ 146 µM) | MIC [10, 20]: 30 ± 10 µg/mL (≈ 73.1 µM); MBC [11]: 60 ± 6 µg/mL (≈ 146 µM); MIC [11]: 30 ± 10 µg/mL (≈ 73.1 µM); MBC [12]: 60 ± 6 µg/mL (≈ 146 µM); MIC [12]: 30 ± 10 µg/mL (≈ 73.1 µM); MBC [13]: 60 ± 6 µg/mL (≈ 146 µM); MIC [13]: 45 ± 3 µg/mL (≈ 110 µM); MBC [14]: 60 ± 6 µg/mL (≈ 146 µM); MIC [14]: 45 ± 3 µg/mL (≈ 110 µM); MBC [15]: 30 ± 10 µg/mL (≈ 73.1 µM); MIC [15]: 15 ± 9 µg/mL (≈ 36.5 µM); MBC [16]: 60 ± 6 µg/mL (≈ 146 µM); MIC [16]: 45 ± 3 µg/mL (≈ 110 µM); melting point: 282 to 284 °C
COC(=O)c1[nH]c2ccccc2c1/C=C1\SC(=S)N(CCCN2CCOCC2)C1=O [Compound 5, (Z)-methyl 3-((3-(3-morpholinopropyl)-4-oxo-2-thioxothiazolidin-5-ylidene)methyl)-1H-indole-2-carboxylate] | 30 ± 10 µg/mL (≈ 67.3 µM) | 15 ± 3 µg/mL (≈ 33.7 µM) | 30 ± 10 µg/mL (≈ 67.3 µM) | 15 ± 3 µg/mL (≈ 33.7 µM) | 120 ± 40 µg/mL (≈ 269 µM) | 60 ± 6 µg/mL (≈ 135 µM) | 15 ± 3 µg/mL (≈ 33.7 µM) | 8 ± 0.6 µg/mL (≈ 18 µM) | 15 ± 3 µg/mL (≈ 33.7 µM) | 8 ± 0.6 µg/mL (≈ 18 µM) | 30 ± 10 µg/mL (≈ 67.3 µM) | 15 ± 3 µg/mL (≈ 33.7 µM) | 4 ± 1 µg/mL (≈ 8.98 µM) | 8 ± 0.6 µg/mL (≈ 18 µM) | 4 µg/mL (≈ 8.98 µM) | 15 ± 3 µg/mL (≈ 33.7 µM) | 110 ± 10 µg/mL (≈ 247 µM) | 60 ± 6 µg/mL (≈ 135 µM) | 30 ± 10 µg/mL (≈ 67.3 µM) | 30 ± 10 µg/mL (≈ 67.3 µM) | MIC [10]: 15 ± 9 µg/mL (≈ 33.7 µM); MIC [10, 20]: 15 µg/mL (≈ 33.7 µM); MBC [11]: 60 ± 6 µg/mL (≈ 135 µM); MIC [11]: 30 ± 10 µg/mL (≈ 67.3 µM); MBC [12]: 60 ± 6 µg/mL (≈ 135 µM); MIC [12]: 30 ± 10 µg/mL (≈ 67.3 µM); MBC [13]: 60 ± 6 µg/mL (≈ 135 µM); MIC [13]: 30 ± 10 µg/mL (≈ 67.3 µM); MBC [14]: 30 ± 10 µg/mL (≈ 67.3 µM); MIC [14]: 22 ± 5 µg/mL (≈ 49.4 µM); MBC [15]: 30 ± 10 µg/mL (≈ 67.3 µM); MIC [15]: 15 ± 9 µg/mL (≈ 33.7 µM); MBC [16]: 60 ± 6 µg/mL (≈ 135 µM); MIC [16]: 45 ± 3 µg/mL (≈ 101 µM); melting point: 213 to 214 °C
COC(=O)c1[nH]c2ccc(F)cc2c1/C=C1\SC(=S)N(CCCC(=O)O)C1=O [Compound 9, (Z)-4-(5-((5-fluoro-2-(methoxycarbonyl)-1H-indol-3-yl)methylene)-4-oxo-2-thioxothiazolidin-3-yl)butanoic acid] | 15 ± 3 µg/mL (≈ 35.5 µM) | 22 ± 5 µg/mL (≈ 52.1 µM) | 30 ± 10 µg/mL (≈ 71 µM) | 15 ± 3 µg/mL (≈ 35.5 µM) | 120 ± 40 µg/mL (≈ 284 µM) | 90 ± 3 µg/mL (≈ 213 µM) | 30 ± 10 µg/mL (≈ 71 µM) | 15 ± 3 µg/mL (≈ 35.5 µM) | 8 ± 0.6 µg/mL (≈ 18.9 µM) | 4 µg/mL (≈ 9.47 µM) | 30 ± 10 µg/mL (≈ 71 µM) | 15 ± 3 µg/mL (≈ 35.5 µM) | 8 ± 0.6 µg/mL (≈ 18.9 µM) | 15 ± 3 µg/mL (≈ 35.5 µM) | 8 µg/mL (≈ 18.9 µM) | 30 ± 10 µg/mL (≈ 71 µM) | 15 ± 3 µg/mL (≈ 35.5 µM) | 60 ± 6 µg/mL (≈ 142 µM) | 30 ± 10 µg/mL (≈ 71 µM) | 60 ± 6 µg/mL (≈ 142 µM) | MIC [5]: 4 ± 1 µg/mL (≈ 9.47 µM); MIC [10, 20]: 30 ± 10 µg/mL (≈ 71 µM); MBC [11]: 60 ± 6 µg/mL (≈ 142 µM); MIC [11]: 30 ± 10 µg/mL (≈ 71 µM); MBC [12]: 60 ± 6 µg/mL (≈ 142 µM); MIC [12]: 30 ± 10 µg/mL (≈ 71 µM); MBC [13]: 60 ± 6 µg/mL (≈ 142 µM); MIC [13]: 30 ± 10 µg/mL (≈ 71 µM); MBC [14]: 60 ± 6 µg/mL (≈ 142 µM); MIC [14]: 30 ± 10 µg/mL (≈ 71 µM); MBC [15]: 60 ± 6 µg/mL (≈ 142 µM); MIC [15]: 30 ± 10 µg/mL (≈ 71 µM); MBC [16]: 60 ± 6 µg/mL (≈ 142 µM); MIC [16]: 30 ± 10 µg/mL (≈ 71 µM); melting point: 192 to 193 °C
